Legend:
HDFn cells [1] = assay: Senolytic Profile Assay (cell counts and senescence markers after 3 days of acute treatment at passage 31); format: cell-based, Human; conditions: for Ki67-positive population: day 9 to 12 timepoint, 0 μM: 3.4%±1.5, p<0.001; for percentage of p21 positive HDFn cells / percentage of p16 positive HDFn cells: timepoint 1 (day 0 to 3); for percentage of p21 positive HDFn cells: 0 μM: 63.1%±9.3; for percentage of p16 positive HDFn cells: 0 μM: 67.8%±4.7; for cell counts: 3 days of treatment
Procedure: (§1) HDFn cells (C0045C, Thermo Scientific, US) were obtained and proliferated to passage 32 (population doubling 58) in standard DMEM proliferation medium (10% FBS) at standard culture conditions (37°° C., 20% O2, 5% CO2). At each passage, cells were cryopreserved and banked. The cells were deemed replicatively senescent at passage 32. When required, cryovial contents was thawed gradually into 5 ml pre-warmed 10% FBS media with gentle pipetting and centrifuged. The supernatant was discarded, and the cell pellet was resuspended into 10% media and cells were counted using a hemocytometer and trypan blue.
Treatment conditions tested in this assay were 0, 3, 30 and 300 μM of EGT as an acute supplementation over 3 days in standard DMEM (10% FBS). Positive controls for senolytic activity were 13 μM of Navitoclax and 600 μM of Fisetin. A 0.1% DMSO condition was introduced as a vehicle control for Fisetin. At passage 31, the HDFn cells were seeded at 10,000 cells per well in triplicate wells onto 48-well plates. After 2 days of acclimatization, cells were treated for 3 days with the conditions above. The cells were then washed with PBS and fixed with 2% PFA. The wells were filled with PBS and stored at 4° C. until immunostaining. For β-galactosidase staining, the staining solution was added onto the cells immediately after fixation and incubated at 37° C. for 24 h. The staining solution was removed, and the wells filled with PBS until imaging. This was repeated for timepoints day 0 to 3, day 6 to 9, and day 9 to 12.
(§2) The panel of senescence markers, Ki67, p16 and p21 were analyzed by immunohistochemical staining using an HRP/DAB kit (ab64264, Abcam, UK). • Antibody details • 1) Ki67—1:1000 dilution, anti-rabbit, ab92742, Abcam; • 2) p16—1:500 dilution, anti-rabbit, ab 108349, Abcam; • 3) p21—1:100 dilution, anti-rabbit, ab 109542, Abcam.
(§3) The cells were counterstained with hematoxylin.
(§4) The senescence-associated β-galactosidase solutions and staining was performed according to Dimri et al, A biomarker that identifies senescent human cells in culture and in aging skin in vivo, Proc. Natl. Acad. Sci. 1995 Sep. 26; 92 (20): 9363-9367. The cells were counterstained with Nuclear Fast Red.
(§5) All staining were imaged on an EVOS XL core microscope at 100× magnification.
(§6) The images were white balanced using a macro on ImageJ. Cells were manually counted using the cell counter plugin and recorded. Graphs and statistics were created using GraphPad Prism 5. For each dataset, a two-way ANOVA was performed with Bonferroni posthoc test against the untreated control. P-values on the graphs are shown as *p<0.05, ** p<0.01, *** p<0.001.

HDFn cells [2] = assay: Senostatic Profile Assay (senescence markers Ki67, p21, p16, SAβG under chronic supplementation); format: cell-based, Human; conditions: for percentage of SAβG positive HDFn cells: untreated 9.8%±2.7
Procedure: as §1
Treatment conditions tested in this assay were 0, 0.5, 3.0 and 30 μM of EGT as a constant supplementation in standard DMEM (10% FBS). HDFn cells were thawed at passage 20 and seeded at 1.5×10^5 cells per flask. Three flasks per condition were seeded. Media was changed every three days. At passages 22, 24, and 26, the HDFn cells were seeded onto 48-well plates at 10,000 cells per well in triplicates per flask, and cultured in DMEM media containing 0, 0.5, 3.0, and 30 μM of EGT, respectively. The cells were proliferated until 70% confluence or for 7 days. The cells were then washed with PBS and fixed with 2% PFA, and stored at 4° C. until immunostaining. For β-galactosidase staining, the staining solution was added onto the cells immediately after fixation and incubated at 37° C. for 24 h. The staining solution was removed, and the wells filled with PBS until imaging. As a positive control for senescence phenotype, one set of wells from the untreated flasks were seeded. At 70% confluence, the cells were treated with 600 μM of hydrogen peroxide in serum-free DMEM for 2 h, then incubated with standard DMEM proliferation medium for 5 days to allow the senescence phenotype to develop. The cells were fixed and stained in the same manner as the other treatment conditions.
as §2, §3, §4, §5, §6

In the case of `C[N+](C)(C)[C@@H](Cc1c[nH]c(=S)[nH]1)C(=O)[O-]` [EGT, L-Ergothioneine], the senolytic activity (HDFn cells [1]; HDFn cells at passage 31, at up to 300 μM) is reported as “not senolytic”, the Ki67-positive population (HDFn cells [1]; passage 31, 30 μM EGT) is reported as 9.2%±3.8 and the “percentage of p21 positive HDFn cells” value (HDFn cells [1]; passage 31, 30 μM EGT) is reported as 29.1%±7.4. For the same compound, the “percentage of p16 positive HDFn cells” value (HDFn cells [1]; passage 31, 30 μM EGT) was 7.0%±2.8, the Ki67-positive population (HDFn cells [1]; passage 31, 300 μM EGT) was 11.4%±2.6 and the “percentage of p21 positive HDFn cells” value (HDFn cells [1]; passage 31, 300 μM EGT) was 27.0%±2.0. For the same compound, the “percentage of p16 positive HDFn cells” value (HDFn cells [1]; passage 31, 300 μM EGT) was 11.7%±5.9, the cell counts (HDFn cells [1]; passage 31, 3, 30 and 300 μM EGT vs 0 μM) was “did not change much” and the “effect on the percentage of SAβG positive HDFn cells” value (HDFn cells [1]; passage 31, EGT 3, 30, 300 μM, any timepoint) was “no statistically significant effect”. The “effect on the percentage of p16 positive HDFn cells” value (HDFn cells [2]; across all three passages (22, 24, 26), EGT 0.5, 3.0, 30 μM) was “did not robustly affect”, the “change of percentage of Ki67 positive HDFn cells compared with the untreated control” value (HDFn cells [2]; all three passages (22, 24, 26), EGT 0.5, 3.0, 30 μM constant supplementation) was “did not result in statistically significant changes” and the senostatic effect (HDFn cells [2]; low chronic doses (0.5-30 μM) in HDFn cells) was “can confer senostatic effects”. For the same compound, the “reduction of the percentage of p21 positive HDFn cells” value (HDFn cells [2]; passage 22, 0.5 μM EGT, p<0.001) was 16.5%, the “percentage of p21 positive HDFn cells” value (HDFn cells [2]; passage 22, 0.5 μM EGT, untreated 82.5%±2.3, mean±SEM) was 66.0%±2.4 and the “reduction of the percentage of p21 positive HDFn cells” value (HDFn cells [2]; passage 22, 3 μM EGT, p<0.001) was 20.1%. For the same compound, the “reduction of the percentage of p21 positive HDFn cells” value (HDFn cells [2]; passage 22, 30 μM EGT, p<0.001) was 21.8%, the “reduction in p16-positive cells” value (HDFn cells [2]; passage 24, 0.5 μM EGT, p<0.001) was 15% and the “change of percentage of p21 positive HDFn cells” value (HDFn cells [2]; passage 24 or 26, EGT 0.5, 3.0, 30 μM) was “did not result in statistically significant changes”. The “percentage of SAβG positive HDFn cells” value (HDFn cells [2]; passage 26, 0.5 μM EGT, p<0.001) was 4.8%±5.7, the “percentage of SAβG positive HDFn cells” value (HDFn cells [2]; passage 26, 3.0 μM EGT, p<0.001) was 3.5%±2.0 and the “percentage of SAβG positive HDFn cells” value (HDFn cells [2]; passage 26, 30 μM EGT, p<0.001) was 5.0%±2.9. For the same compound, the “mean SAβG reduction” value (HDFn cells [2]; passage 26, mean over 0.5, 3.0 and 30 μM EGT) was 50%.

In the case of `O=c1c(O)c(-c2ccc(O)c(O)c2)oc2cc(O)ccc12` [FIS, Fisetin, reference compound], the cell counts (HDFn cells [1]; passage 31, 600 μM Fisetin, positive control) is reported as “dramatically decreased”.

With `CC1(C)CCC(c2ccc(Cl)cc2)=C(CN2CCN(c3ccc(C(=O)NS(=O)(=O)c4ccc(N[C@H](CCN5CCOCC5)CSc5ccccc5)c(S(=O)(=O)C(F)(F)F)c4)cc3)CC2)C1` [NAV, Navitoclax, reference compound] the cell counts (HDFn cells [1]; passage 31, 13 μM Navitoclax, positive control) was “dramatically decreased”.

For `OO` [hydrogen peroxide, reference compound], the “SAβG levels (senescence-associated β-galactosidase positive HDFn cells)” value (HDFn cells [2]; 600 μM hydrogen peroxide for 2 h, then 5 days, positive control for senescence phenotype) was “remained low”.

— patent US20250073211A1, “USE OF ERGOTHIONEINE TO SUPPRESS DELETERIOUS EFFECTS OF SENESCENCE” (NANJING NUTRABUILDING BIO-TECH CO., LTD., priority 2022, published 2025)
